Results taken from patent publication US11149086B2, “KV1.3 binding immunoglobulins” (Ablynx N.V., priority 2014, dated 2021).
Bridge positions count the residues as written; N and C are the ends. Peptide text beside a SMILES is read from it.

What was measured:
[1] = molecular target: T1, human Kv1.3 (Homo sapiens, UniProt P22001); assay: FACS competition with FAM-labeled ShK on HEK293H human Kv1.3 cells; format: binding; conditions: 70 nM ShK-FAM
T1 construct: cell lines stably expressing the full length human Kv1.3 channel
T1 sequence (P22001 whole entry): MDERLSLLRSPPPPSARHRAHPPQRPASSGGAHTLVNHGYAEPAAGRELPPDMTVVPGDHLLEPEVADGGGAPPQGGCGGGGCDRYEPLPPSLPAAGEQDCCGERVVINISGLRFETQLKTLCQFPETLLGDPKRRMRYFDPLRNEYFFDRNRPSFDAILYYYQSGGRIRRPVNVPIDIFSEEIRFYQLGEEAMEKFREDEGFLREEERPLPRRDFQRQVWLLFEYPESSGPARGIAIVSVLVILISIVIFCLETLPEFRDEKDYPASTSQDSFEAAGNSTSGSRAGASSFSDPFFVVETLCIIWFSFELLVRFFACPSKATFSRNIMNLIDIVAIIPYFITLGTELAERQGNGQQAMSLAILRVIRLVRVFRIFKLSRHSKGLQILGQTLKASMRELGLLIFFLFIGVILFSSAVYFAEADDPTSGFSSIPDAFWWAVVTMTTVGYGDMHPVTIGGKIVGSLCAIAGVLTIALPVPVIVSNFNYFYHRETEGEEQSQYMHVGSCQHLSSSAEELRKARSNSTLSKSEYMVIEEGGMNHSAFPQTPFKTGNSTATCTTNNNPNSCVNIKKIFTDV
Procedure: To evaluate the competition between the toxin ShK and the Nanobodies for binding to Kv1.3, a FACS competition experiment was performed using HEK293H cells overexpressing human Kv1.3 and the parental HEK293H cells as background cell line. As detection reagent, FAM-labeled ShK was used (6-FAM-AEEAc-Stichodactyla helianthus Neurotoxin (ShK) (Bachem, H-6088, 1046522, PRT00000366/01/01)). To setup the assay, first a titration series of the labeled Shk-FAM was performed on the HEK293H Kv1.3 cells in order to determine the EC50 value for binding.
In brief, a dilution series of ShK or Nanobody were added together with the labeled toxin to 200 000 cells in a 96-well plate. After 90 minutes incubation at 4° C., cells were washed three times before read out was performed on a FACS Canto (Becton Dickinson). First a gate was set on the intact cells as determined from the scatter profile. Next, dead cells were gated out by their fluorescence profile from the TOPRO stain (5 nM, Molecular probes, T3605). […] The percentage of inhibition for Nanobodies blocking the interaction of ShK to human Kv1.3 is depicted in Table B-11.

[2] = tested on: DNFB-induced delayed type hypersensitivity in Wistar rats; assay: DNFB-induced delayed-type hypersensitivity (DTH) rat model, ear swelling; format: in vivo
Text: A delayed-type hypersensitivity (DTH) reaction is an expression of T cell-mediated immunity in response to cutaneous sensitization and challenge with reactive haptens like 2, 4-dinitrofluorobenzene (DNFB), largely mediated by skin-homing effector memory T cells (Azam P et al., J Invest Dermatol 127(6):1419-29, 2007; Matheu M P et al., Immunity 29(4):602-14, 2008). The voltage-gated potassium channel Kv1.3 is expressed in T cells, and is important in maintaining T cell activation (predominantly effector memory T cells).
For the purpose of in vivo proof-of-concept, the efficacy of anti-Kv1.3 Nanobodies on DNFB-induced delayed type hypersensitivity in Wistar rats was evaluated. The DTH response in the rats was elicited as follows (see FIG. 37): on day 0 (start of the in-life) and day 1, 100 μl of 1% (wt/vol) DNFB prepared in 4:1 acetone/olive oil was applied to the shaved dorsum for sensitization. On day 5, animals were challenged on both sides of the right ear pinnae of the animals with 50 μl of 0.5% (wt/vol) DNFB prepared in 4:1 acetone: olive oil. […] As positive control, animals were treated with dexamethasone (topical, 0.75 mg at 1 hour and 6 hours post-challenge). On day 5 before DNFB challenge, the baseline right ear pinna thickness was measured, and the net ear swelling response was determined 24 hours after challenge with a spring-loaded micrometer.
The DTH response in the rats was elicited as follows (see FIG. 37): on day 0 (start of the in-life) and day 1, 100 μl of 1% (wt/vol) DNFB prepared in 4:1 acetone/olive oil was applied to the shaved dorsum for sensitization. On day 5, animals were challenged on both sides of the right ear pinnae of the animals with 50 μL of 0.5% (wt/vol) DNFB prepared in 4:1 acetone: olive oil. Animals (n=10 rats/group) received two subcutaneous (s.c.) injections of either vehicle, the benchmark compound ShK or the anti-Kv1.3 Nanobody at 12 hours and/or 1 hour preceding the challenge. As positive control, animals were treated with dexamethasone (topical, 0.75 mg at 1 hour and 6 hours post-challenge). On day 5 before DNFB challenge, the baseline right ear pinna thickness was measured, and the net ear swelling response was determined 24 hours after challenge with a spring-loaded micrometer.

[3] = tested on: human PBMCs; assay: IFNγ production by human PBMCs after anti-CD3 with or without anti-CD28 stimulation; format: cell-based
Procedure: The anti-Kv1.3 inhibitory Nanobodies were evaluated for their effect on cytokine secretion by plate-bound anti-CD3/CD28 stimulated PBMCs. ShK was included as reference compound (FIG. 30). This co-stimulation of T-cells with anti-CD3 and anti-CD28 reflects strong immune stimulation as encountered during an acute infection. Single stimulation with anti-CD3 imitates rather the moderate immune stimulation resembling the situation during e.g. an autoimmune disease.
Briefly, PBMCs were first collected from Buffy Coat blood (from healthy volunteers, Bloodbank Gent) using RosetteSep (StemCell Technologies, #15061) followed by an enrichment on Ficoll-Paque™ PLUS (GE Healthcare #17-1440-03). The purity of the population was afterwards checked with anti-CD3 (eBioscience #12-0037-73); anti-CD8 (BD Bioscience #345775); anti-CD4 (BD Bioscience #345771); anti-CD45RO (BD Bioscience #555493); anti-CD45RA (BD Bioscience #550855) and anti-CD19 (BD Bioscience #555413) fluorescently labeled antibodies in a flow cytometric assay. […] After 72 h, IFN-gamma production was measured with anti-human IFNγ antibody capture in ELISA (BD Bioscence #551221) combined with biotinylated anti-human IFNγ (BD Bioscience, #554550) and streptavidin-HRP (Dakocytomation #P0397) as detection.

[4] = tested on: CCR7−CD45RA− T cells; format: cell-based, human; conditions: monovalent Nanobodies
Text: The purified anti-Kv1.3 Nanobodies were characterized in a T Cell-activation assay. Human T Cells were first collected from Buffy Coat blood (from healthy volunteers, Bloodbank Gent) using RosetteSep (StemCell Technologies, #15061) followed by an enrichment on Ficoll-Paque™ PLUS (GE Healthcare #17-1440-03). CCR7−CD45RA− T cells were isolated through negative selection using biotinylated antibodies against CD45RA (BD Bioscience #624008) and CCR7 (BD Bioscence #624009) in addition to the Dynabeads Biotin Binder (Invitrogen #110.47). […]
Isolated CCR7^−CD45RA^− T Cells were then stimulated on anti-CD3 (eBioscience 16-0037-85; 540 ng/ml) coated 96-well plates at a concentration of 200 000 cells/well in absence or presence of dilution series of anti-Kv1.3 antibodies and ShK positive control (Smartox, #08SHK001). After 72 h, IFN-gamma production was measured with anti-human IFNγ antibody capture in ELISA (BD Bioscence #551221) combined with biotinylated anti-human IFNγ (BD Bioscience, #554550) and streptavidin-HRP (Dakocytomation #P0397) as detection (FIG. 11A-11B).
In addition, also CD25 expression was measured in flow cytometry, using an anti-CD25 antibody (BD Pharmingen, cat 557138) (FIG. 11C-11D). […]

Question: With `CC[C@H](C)[C@@H]1NC(=O)[C@@H](NC(=O)[C@H](CO)NC(=O)[C@@H](N)CCCNC(=N)N)CSSC[C@@H](C(=O)O)NC(=O)[C@H]([C@@H](C)O)NC(=O)CNC(=O)[C@@H]2CSSC[C@@H]3NC(=O)[C@H](CCC(N)=O)NC(=O)[C@H](Cc4ccccc4)NC(=O)[C@H](C)NC(=O)[C@H]([C@@H](C)O)NC(=O)[C@H](CSSC[C@H](NC(=O)[C@H](Cc4ccccc4)NC(=O)[C@H](CO)NC(=O)[C@H](CC(C)C)NC(=O)[C@H](CCCNC(=N)N)NC(=O)[C@H](Cc4ccc(O)cc4)NC(=O)[C@H](CCCCN)NC(=O)[C@H](CCSC)NC(=O)[C@H](CO)NC(=O)[C@H](Cc4c[nH]cn4)NC(=O)[C@H](CCCCN)NC3=O)C(=O)N[C@@H](CCCNC(=N)N)C(=O)N[C@@H](CCCCN)C(=O)N[C@@H]([C@@H](C)O)C(=O)N2)NC(=O)[C@H](CCCNC(=N)N)NC(=O)[C@H](CO)NC(=O)[C@H](CCCCN)NC(=O)[C@@H]2CCCN2C(=O)[C@H]([C@@H](C)CC)NC(=O)[C@H]([C@@H](C)O)NC(=O)[C@H](CC(=O)O)NC1=O` [ShK] as the compound, how does the “blocking of FAM labeled ShK binding to Kv1.3, in words” value [1] read?
Answer: completely blocked

Question: And the “mean increase in ear thickness” value ([2]; Example 12, two s.c. injections of 10 μg/kg, 12 h and 1 h pre-challenge)?
Answer: 0.213±0.019 mm

Question: What about the “mean increase in ear thickness” value ([2]; Example 13, two s.c. injections of 100 μg/kg) of the same compound?
Answer: 0.136±0.024 mm

Question: What about the “IFNγ production, PBMCs co-stimulated with anti-CD3 and anti-CD28” value ([3]; anti-CD3 and anti-CD28, 72 h) of the same compound?
Answer: do not inhibit

Question: What about the “IFNγ production, PBMCs stimulated with anti-CD3 only” value ([3]; single anti-CD3 stimulation, 72 h) of the same compound?
Answer: Inhibition

Question: Which results are given for `CC[C@H](C)[C@H](NC(=O)[C@@H](N)[C@@H](C)O)C(=O)N[C@H](C(=O)N[C@@H](CC(N)=O)C(=O)N[C@H](C(=O)N[C@@H](CCCCN)C(=O)N[C@H]1CSSC[C@@H]2NC(=O)[C@H](CCCCN)NC(=O)[C@H](C)NC(=O)CNC(=O)[C@H](C)NC(=O)[C@H](CO)NC(=O)[C@H](CCC(N)=O)NC(=O)CNC(=O)[C@H](Cc3ccccc3)NC(=O)[C@H](CCC(N)=O)NC(=O)[C@H](C)NC(=O)[C@H](CCCCN)NC(=O)[C@@H]3CSSC[C@@H](C(=O)N[C@@H](Cc4ccc(O)cc4)C(=O)N4CCC[C@H]4C(=O)N[C@@H](Cc4c[nH]cn4)C(=O)O)NC(=O)[C@H](CCCCN)NC(=O)[C@H](CSSC[C@H](NC(=O)[C@H](CCC(N)=O)NC(=O)[C@H](CCCCN)NC(=O)[C@@H]4CCCN4C(=O)[C@H](CO)NC(=O)[C@H]([C@@H](C)O)NC1=O)C(=O)N[C@@H](CC(C)C)C(=O)N1CCC[C@H]1C(=O)N1CCC[C@H]1C(=O)N3)NC(=O)[C@H](CCCCN)NC(=O)CNC(=O)[C@H](CC(N)=O)NC(=O)[C@H](CCSC)NC2=O)C(C)C)[C@@H](C)CC` [MgTX, margatoxin, reference compound] (H-TIINVKCTSPKQCLPPCKAQFGQSAGAKCMNGKCKCYPH-OH; disulfide 7-29, 13-34, 17-36; N-terminus and C-terminus assumed)?
Answer: IC50 (in M) CD25 read out ([4]; plate bound anti-CD3): no fit; IC50 ([4]; plate bound anti-CD3, 72 h, read-out: IC50 (in M) IFNγ read out): 0.094 nM

Question: Which “mean increase in ear thickness” value ([2]; Example 12, topical 0.75 mg at 1 h and 6 h post-challenge, 24 h after challenge) does the source give for `C[C@@H]1C[C@H]2[C@@H]3CCC4=CC(=O)C=C[C@]4(C)[C@@]3(F)[C@@H](O)C[C@]2(C)[C@@]1(O)C(=O)CO` [dexamethasone] here?
Answer: 0.027±0.017 mm

Question: And the “mean increase in ear thickness” value ([2]; Example 13, topical 0.75 mg at 1 h and 6 h post-challenge)?
Answer: 0.018±0.016 mm
